Measured values from PubChem BioAssay AID1259411 (Chemical Carcinogenesis Research Information System (CCRIS), 2018).
Calls of active or inactive are those of the source. No rule for the calls is given here.

Test system: rodent carcinogenicity bioassays, tumor incidence
Experiment: CCRIS carcinogenicity studies
Method in brief: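 Archive of carcinogenicity, mutagenicity, tumor promotion and tumor inhibition results drawn from journals, NCI reports and other sources, expert-reviewed; covers 1985-2011 and is no longer updated.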

SMILES: Clc1ccccc1Cl
- carcinogen call (Species: MOUSE, Strain/Sex: B6C3F1/FEMALE, Route: GAVAGE, Dose: 0, 60, 120 MG/KG BODY WT IN CORN OIL 5 D/WK FOR 103 WK, Dose: 0, 60, 120 MG/KG BODY WT IN CORN OIL 5 D/WK FOR 103 WK): inactive; negative
- carcinogen call (Species: MOUSE, Strain/Sex: B6C3F1/MALE, Route: GAVAGE, Dose: 0, 60, 120 MG/KG BODY WT IN CORN OIL 5 D/WK FOR 103 WK, Dose: 0, 60, 120 MG/KG BODY WT IN CORN OIL 5 D/WK FOR 103 WK): inactive; negative
- carcinogen call (Species: RAT, Strain/Sex: F344/FEMALE, Route: GAVAGE, Dose: 0, 60, 120 MG/KG BODY WT IN CORN OIL 5 D/WK FOR 103 WK, Dose: 0, 60, 120 MG/KG BODY WT IN CORN OIL 5 D/WK FOR 103 WK): inactive; negative
- carcinogen call (Species: RAT, Strain/Sex: F344/MALE, Route: GAVAGE, Dose: 0, 60, 120 MG/KG BODY WT IN CORN OIL 5 D/WK FOR 103 WK, Dose: 0, 60, 120 MG/KG BODY WT IN CORN OIL 5 D/WK FOR 103 WK): inactive; negative

SMILES: ClCC1CO1 (configuration not stated)
- carcinogen call (Species: MOUSE, Route: DERMAL, Tumor Site: Type of Lesion: INTEGUMENTARY SYSTEM (SKIN)): active; positive
- carcinogen call (Species: MOUSE, Route: SUBCUTANEOUS, Tumor Site: Type of Lesion: INJECTION SITE): active; positive
- carcinogen call (Species: RAT, Strain/Sex: WISTAR/FEMALE, Route: GAVAGE, Dose: 0, 2, 10 MG/KG IN WATER 5 D/WK FOR 104 WK (STUDY DURATION: 24 MO), Dose: 0, 2, 10 MG/KG IN WATER 5 D/WK FOR 104 WK (STUDY DURATION: 24 MO), Tumor Site: Type of Lesion: FORESTOMACH: SQUAMOUS CELL CARCINOMA): active; positive
- carcinogen call (Species: RAT, Strain/Sex: WISTAR/MALE, Route: GAVAGE, Dose: 0, 2, 10 MG/KG IN WATER 5 D/WK FOR 104 WK (STUDY DURATION: 24 MO), Dose: 0, 2, 10 MG/KG IN WATER 5 D/WK FOR 104 WK (STUDY DURATION: 24 MO), Tumor Site: Type of Lesion: FORESTOMACH: SQUAMOUS CELL CARCINOMA): active; positive

SMILES: CN(C)c1ccc(C(=O)c2ccc(N(C)C)cc2)cc1
- carcinogen call (Species: MOUSE, Strain/Sex: B6C3F1/FEMALE, Route: ORAL, Dose: 0, 1250, 2500 PPM IN DIET, Dose: 0, 1250, 2500 PPM IN DIET, Tumor Site: Type of Lesion: LIVER: HEPATOCELLULAR ADENOMA OR CARCINOMA): active; positive
- carcinogen call (Species: MOUSE, Strain/Sex: B6C3F1/MALE, Route: ORAL, Dose: 0, 1250, 2500 PPM IN DIET, Dose: 0, 1250, 2500 PPM IN DIET, Tumor Site: Type of Lesion: INTEGUMENTARY SYSTEM (SUBCUTANEOUS TISSUE): HEMANGIOSARCOMA OR HEMANGIOMA): active; positive
- carcinogen call (Species: RAT, Strain/Sex: F344/FEMALE, Route: ORAL, Dose: 0, 500, 1000 PPM IN DIET, Dose: 0, 500, 1000 PPM IN DIET, Tumor Site: Type of Lesion: LIVER: HEPATOCELLULAR CARCINOMA OR NEOPLASTIC NODULE): active; positive
- carcinogen call (Species: RAT, Strain/Sex: F344/MALE, Route: ORAL, Dose: 0, 250, 500 PPM IN DIET, Dose: 0, 250, 500 PPM IN DIET, Tumor Site: Type of Lesion: LIVER: HEPATOCELLULAR CARCINOMA OR NEOPLASTIC NODULE): active; positive

SMILES: C=C(C)C#N
- carcinogen call (Species: MOUSE, Strain/Sex: B6C3F1/FEMALE, Route: GAVAGE, Dose: 0, 1.5, 3, 6 MG/KG 5 D/WK FOR 104-105 WK (STUDY DURATION: 104-105 WK), Dose: 0, 1.5, 3, 6 MG/KG 5 D/WK FOR 104-105 WK (STUDY DURATION: 104-105 WK)): inactive; negative
- carcinogen call (Species: MOUSE, Strain/Sex: B6C3F1/MALE, Route: GAVAGE, Dose: 0, 1.5, 3, 6 MG/KG 5 D/WK FOR 104-105 WK (STUDY DURATION: 104-105 WK), Dose: 0, 1.5, 3, 6 MG/KG 5 D/WK FOR 104-105 WK (STUDY DURATION: 104-105 WK)): inactive; negative
- carcinogen call (Species: RAT, Strain/Sex: F344/FEMALE, Route: GAVAGE, Dose: 0, 3, 10, 30 MG/KG 5 D/WK FOR 104-105 WK (STUDY DURATION: 104-105 WK), Dose: 0, 3, 10, 30 MG/KG 5 D/WK FOR 104-105 WK (STUDY DURATION: 104-105 WK)): inactive; negative
- carcinogen call (Species: RAT, Strain/Sex: F344/MALE, Route: GAVAGE, Dose: 0, 3, 10, 30 MG/KG 5 D/WK FOR 104-105 WK (STUDY DURATION: 104-105 WK), Dose: 0, 3, 10, 30 MG/KG 5 D/WK FOR 104-105 WK (STUDY DURATION: 104-105 WK)): inactive; negative

SMILES: C#CC(C)(C)NC(=O)c1cc(Cl)cc(Cl)c1
- carcinogen call (Species: MOUSE, Strain/Sex: B6C3F1/MALE, Route: ORAL, Dose: 0, 20, 100, 500, 2500 PPM IN DIET FOR 12, 18 OR 24 MO (STUDY DURATION: 24 MO), Dose: 0, 20, 100, 500, 2500 PPM IN DIET FOR 12, 18 OR 24 MO (STUDY DURATION: 24 MO), Tumor Site: Type of Lesion: LIVER: HEPATOCELLULAR CARCINOMA OR ADENOMA): active; positive
